Test results reported in patent US10597388B2, “Pyridazinone herbicides” (FMC CORPORATION, priority 2014, dated 2020).

Key:
Assay type in all cases: in vivo
[1] = test system: blackgrass (Alopecurus myosuroides); experiment: Test A greenhouse herbicide test, postemergence
Outline: (§1)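 Pot-grown plants (loam soil/sand blend), 2–10 cm tall at the one- to two-leaf stage, received postemergence sprays of formulated test chemical. After about 10 d in the greenhouse, injury was rated visually against untreated controls on a 0 (no effect) to 100 (complete control) scale.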

[2] = test system: galium (catchweed bedstraw, Galium aparine); experiment: Test A greenhouse herbicide test, postemergence
Outline: as §1

[3] = test system: nutsedge, yellow (yellow nutsedge, Cyperus esculentus); experiment: Test C greenhouse herbicide test, pre- and postemergence; conditions: Preemergence; for Plant response rating, Nutsedge, Yellow: scale 0 to 100, 0 is no effect, 100 is complete control
Text: (§2) Seeds of plant species selected from blackgrass (Alopecurus myosuroides), ryegrass, Italian (Italian ryegrass, Lolium multiflorum), wheat (winter wheat, Triticum aestivum), galium (catchweed bedstraw, Galium aparine), corn (Zea mays), large crabgrass, large (large crabgrass, Digitaria sanguinalis), foxtail, giant (giant foxtail, Setaria faberii), johnsongrass (Sorghum halepense), lambsquarters (Chenopodium album), morningglory (Ipomoea coccinea), nutsedge, yellow (yellow nutsedge, Cyperus esculentus), pigweed (Amaranthus retroflexus), ragweed (common ragweed, Ambrosia elatior), soybean (Glycine max), barnyardgrass (Echinochloa crus-galli), oilseed rape (Brassica napus), waterhemp (common waterhemp, Amaranthus rudis), and velvetleaf (Abutilon theophrasti) were planted into a blend of loam soil and sand and treated preemergence with test chemicals formulated in a non-phytotoxic solvent mixture which included a surfactant.
(§3) At the same time, plants selected from these crop and weed species and also chickweed (common chickweed, Stellaria media), kochia (Kochia scoparia), and oat, wild (wild oat, Avena fatua), were planted in pots containing Redi-Earth® planting medium (Scotts Company, 14111 Scottslawn Road, Marysville, Ohio 43041) comprising spaghnum peat moss, vermiculite, wetting agent and starter nutrients and treated with postemergence applications of test chemicals formulated in the same manner. Plants ranged in height from 2 to 18 cm (1- to 4-leaf stage) for postemergence treatments. Treated plants and controls were maintained in a greenhouse for 13 to 15 d, after which time all species were compared to controls and visually evaluated. Plant response ratings, summarized in Table C, are based on a scale of 0 to 100 where 0 is no effect and 100 is complete control. A dash (-) response means no test result.

[4] = test system: blackgrass (Alopecurus myosuroides); experiment: as above; conditions: Preemergence; for Plant response rating, Blackgrass: scale 0 to 100, 0 is no effect, 100 is complete control
Text: as §2, §3

soybean (Glycine max) = experiment: as above; conditions: Preemergence; for Plant response rating, Soybean: scale 0 to 100, 0 is no effect, 100 is complete control
Text: as §2, §3

[5] = test system: barnyardgrass (Echinochloa crus-galli); experiment: as above; conditions: Preemergence; for Plant response rating, Barnyardgrass: scale 0 to 100, 0 is no effect, 100 is complete control
Text: as §2, §3

[6] = test system: velvetleaf (Abutilon theophrasti); experiment: as above; conditions: Preemergence; for Plant response rating, Velvetleaf: scale 0 to 100, 0 is no effect, 100 is complete control
Text: as §2, §3

[7] = test system: pigweed (Amaranthus retroflexus); experiment: as above; conditions: Preemergence; for Plant response rating, Pigweed: scale 0 to 100, 0 is no effect, 100 is complete control
Text: as §2, §3

[8] = test system: ragweed (common ragweed, Ambrosia elatior); experiment: as above; conditions: Preemergence; for Plant response rating, Ragweed: scale 0 to 100, 0 is no effect, 100 is complete control
Text: as §2, §3

[9] = test system: galium (catchweed bedstraw, Galium aparine); experiment: as above; conditions: Preemergence; for Plant response rating, Galium: scale 0 to 100, 0 is no effect, 100 is complete control
Text: as §2, §3

[10] = test system: ryegrass, Italian (Italian ryegrass, Lolium multiflorum); experiment: as above; conditions: Preemergence; for Plant response rating, Ryegrass, Italian: scale 0 to 100, 0 is no effect, 100 is complete control
Text: as §2, §3

[11] = 125 g ai/ha, 0 to 100 scale where 0 is no effect and 100 is complete control
[12] = 500 g ai/ha, visual rating after approx. 10 d, 0 to 100 scale (0 no effect, 100 complete control)
[13] = 250 g ai/ha, scale 0 to 100, 0 no effect, 100 complete control

CCC(=O)Oc1c(OC)nn(C)c(=O)c1-c1c(C)sc2ccc(Cl)cc12 [Compound 131]
Plant response rating, Blackgrass [1, 11]: 30 | Plant response rating, Blackgrass [1, 12]: 50 | Plant response rating, Galium [2, 11]: 70 | Plant response rating, Galium [2, 12]: 100 | Plant response rating, Nutsedge, Yellow ([3]; 31 g ai/ha): 10 | Plant response rating, Nutsedge, Yellow ([3]; 62 g ai/ha): 35 | Plant response rating, Nutsedge, Yellow ([3]; 125 g ai/ha): 65 | Nutsedge, Yellow plant response rating [3, 13]: 75 | Plant response rating, Blackgrass ([4]; 31 g ai/ha): 0 | Plant response rating, Blackgrass ([4]; 62 g ai/ha): 40 | Plant response rating, Blackgrass ([4]; 125 g ai/ha): 40 | Blackgrass plant response rating [4, 13]: 90 | Plant response rating, Soybean (soybean (Glycine max); 31 g ai/ha): 0 | Plant response rating, Soybean (soybean (Glycine max); 62 g ai/ha): 0 | Plant response rating, Soybean (soybean (Glycine max); 125 g ai/ha): 0 | Soybean plant response rating (soybean (Glycine max); [13]): 0 | Plant response rating, Barnyardgrass ([5]; 31 g ai/ha): 0 | Plant response rating, Barnyardgrass ([5]; 62 g ai/ha): 0 | Plant response rating, Barnyardgrass ([5]; 125 g ai/ha): 10 | Barnyardgrass plant response rating [5, 13]: 35 | Plant response rating, Velvetleaf ([6]; 31 g ai/ha): 0 | Plant response rating, Velvetleaf ([6]; 62 g ai/ha): 55 | Plant response rating, Velvetleaf ([6]; 125 g ai/ha): 85 | Velvetleaf plant response rating [6, 13]: 95 | Plant response rating, Pigweed ([7]; 31 g ai/ha): 60 | Plant response rating, Pigweed ([7]; 62 g ai/ha): 100 | Plant response rating, Pigweed ([7]; 125 g ai/ha): 100 | Pigweed plant response rating [7, 13]: 100 | Plant response rating, Ragweed ([8]; 31 g ai/ha): 65 | Plant response rating, Ragweed ([8]; 62 g ai/ha): 95 | Plant response rating, Ragweed ([8]; 125 g ai/ha): 98 | Ragweed plant response rating [8, 13]: 98 | Plant response rating, Galium ([9]; 31 g ai/ha): 85 | Plant response rating, Galium ([9]; 62 g ai/ha): 90 | Plant response rating, Galium ([9]; 125 g ai/ha): 95 | Galium plant response rating [9, 13]: 95 | Plant response rating, Ryegrass, Italian ([10]; 31 g ai/ha): 10 | Plant response rating, Ryegrass, Italian ([10]; 62 g ai/ha): 80 | Plant response rating, Ryegrass, Italian ([10]; 125 g ai/ha): 95 | Ryegrass, Italian plant response rating [10, 13]: 95

Cc1ccc2oc(C)c(-c3c(OC(=O)C(C)(C)C)c(C)nn(C)c3=O)c2c1 [Compound 17, 5-(2,5-dimethyl-3-benzofuranyl)-1,6-dihydro-1,3-dimethyl-6-oxo-4-pyridazinyl 2,2-dimethylpropanoate]
pest or weed control at 125 g/ha ([1]; Alopecurus myosuroides, post-emergence, 240 h, 125 g ai/ha, visual rating after approx. 10 d, 0 to 100 scale (0 no effect, 100 complete control), read-out: Plant response rating, Blackgrass): 10% | pest or weed control at 500 g/ha ([1]; Alopecurus myosuroides, post-emergence, 240 h, 500 g ai/ha, 0 to 100 scale, 0 is no effect, 100 is complete control, read-out: Blackgrass plant response rating): 40% | pest or weed control at 125 g/ha ([2]; Galium, post-emergence, 240 h, 125 g ai/ha, visual rating after approx. 10 d, 0 to 100 scale (0 no effect, 100 complete control), read-out: Plant response rating, Galium): 50% | pest or weed control at 500 g/ha ([2]; Galium, post-emergence, 240 h, 500 g ai/ha, 0 to 100 scale, 0 is no effect, 100 is complete control, read-out: Galium plant response rating): 60%
